Experiment [1] has as its target human ADAM17 (TACE) (Homo sapiens, UniProt P78536). Nature of the experiment: TACE enzyme inhibition assay. Type of experiment: biochemical. How it is done: Compounds of the invention were tested to assess their activities as inhibitors of MMP-1, MMP-2, MMP-9, MMP-14, MMP-12 and TACE. MMP-9 Assay Protocol
Compounds of the invention can be tested for inhibitory activity against human ADAM17 in an assay using human Mca-(endo-1a-Dap(Dnp)-TNF-alpha(−5 to +6)amide as substrate (FEBS Letters, 2000, 275-279).
Stock solutions are prepared as followed: • Assay Buffer: 20 mM Hepes pH 7.5 (Fluka) containing 0.05% Brij 35 (Fluka) • Substrate: 6.1 mM human Mca-(endo-1a-Dap(Dnp)-TNF-alpha(−5 to +6)amide (Bachem) stock solution in 100% DMSO (stored at −20° C.); diluted to 5 μM in assay buffer. • Enzyme: Recombinant human ADAM17, appropriately diluted in assay buffer (1.5 μg/ml).
Test Compounds are prepared initially as 10 mM compound solution in 100% DMSO, diluted to 1 mM in 100% DMSO, then serially diluted 3-fold in 100% DMSO across a 96-well microtitre plate. Assay concentration range is typically between 100 μM to 0.01 nM. The assay is performed in a total volume of 100 μL per well in 96-well microtitre plates. Appropriate concentrations of test compounds dissolved in 10 μL of DMSO are added to the wells, followed by substrate solution (50 μL, 5 μM prepared by dilution of DMSO stock in assay buffer) and enzyme solution (40 μL). For each as say ten concentrations of test compound are examined in […]. Control wells lack either enzyme or test compound. The reactions are incubated at room temperature for 1.5 hours. The fluorescence at 405 nm is measured immediately with a fluorometer using 355 nm excitation, without stopping the reaction.
The effect of the test compound is determined from the dose response curve generated by the 10 duplicate concentrations of inhibitor. The IC50 (the concentration of compound required to give a 50% decrease in enzyme activity) is obtained by fitting data to the equation, Y=a+((b−a)/(1+(c/X)^d)). (Y=inhibition achieved for a particular dose; X=the dose in nM; a=minimum y or zero % inhibition; b=maximum y or 100% inhibition; c=is the IC50; d=is the slope). The result is rounded to one significant figure.

The target in experiment [2] is T1, gelatinase A (MMP-2) (Homo sapiens, UniProt P08253).
T1 sequence (P08253 110-660): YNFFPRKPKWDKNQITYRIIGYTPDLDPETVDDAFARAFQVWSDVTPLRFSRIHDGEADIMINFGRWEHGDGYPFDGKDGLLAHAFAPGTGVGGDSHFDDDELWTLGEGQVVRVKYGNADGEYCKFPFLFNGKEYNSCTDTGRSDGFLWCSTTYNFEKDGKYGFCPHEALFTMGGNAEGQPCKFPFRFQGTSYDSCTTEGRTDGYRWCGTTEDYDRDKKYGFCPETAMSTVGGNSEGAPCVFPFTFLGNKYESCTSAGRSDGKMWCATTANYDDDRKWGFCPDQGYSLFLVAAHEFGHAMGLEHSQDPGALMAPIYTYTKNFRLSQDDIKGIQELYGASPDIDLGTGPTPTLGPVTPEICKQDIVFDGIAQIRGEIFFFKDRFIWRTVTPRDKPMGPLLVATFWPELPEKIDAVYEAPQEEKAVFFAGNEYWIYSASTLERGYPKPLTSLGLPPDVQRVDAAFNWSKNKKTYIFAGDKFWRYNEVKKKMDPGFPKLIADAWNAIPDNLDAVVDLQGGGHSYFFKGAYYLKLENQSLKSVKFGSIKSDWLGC
Briefly: MMP-2 enzyme inhibition assay (coumarin-labelled peptide substrate). In kind it is biochemical. As to conditions: read-out: IC50 MMP2. Here is the method: Compounds of the invention were tested to assess their activities as inhibitors of MMP-1, MMP-2, MMP-9, MMP-14, MMP-12 and TACE. MMP-9 Assay Protocol […]
Stock solutions were made up as follows: Assay Butter: 100 mM Tris-HCl pH 7.6 containing 100 mM NaCl, 10 mM CaCl2, and 0.05% Brij 35.
Substrate: 0.4 mM McaPLGLDpaAR (from Bachem) (0.437 mg/ml) stock solution in 100% DMSO (stored at −20° C.). Dilute to 8 μM in assay butter. […]
Test Compounds were prepared initially as 10 mM compound solution in 100% DMSO, diluted to 1 mM in 100% DMSO, then serially diluted 3-fold in 100% DMSO across columns 1-10 of a 96-well microtitre plate Assay concentration range, 100 μM (column 1) to 5.1 nM (column 10).
The assay was performed in a total volume of 100 μL per well in 96-well microtitre plates. Activated enzyme (20 μL) was added to the wells followed by 20 μL of assay butter. Appropriate concentrations of test compounds dissolved in 10 μL of DMSO were then added followed by 50 μL of McaPLGLDpaAR (8 μM, prepared by dilution of DMSO stock in assay butter). For each as say ten concentrations of test compound were examined in duplicate. Control wells lack either enzyme or test compound. The reactions were incubated at 37° C. for 2 hours. The fluorescence at 405 nm was measured immediately with an SLT Fluostar fluorometer (SL T Labinstruments GmbH, Grödig, Austria) using 320 nm excitation, without stopping the reaction.
The effect of the test compound was determined from the dose response curve generated by the 10 duplicate concentrations of inhibitor. The IC50 (the concentration of compound required to give a 50% decrease in enzyme activity) was obtained by fitting data to the equation, Y=a+((b−a)/(1+(c/X)^d)). (Y=inhibition achieved for a particular dose; X=the dose in nM; a=minimum y or zero % inhibition; b=maximum y or 100% inhibition; c=is the IC50; d=is the slope). The result was rounded to one significant figure.
Compounds of the invention were tested for inhibitory activity against gelatinase A (MMP-2) in an assay using a coumarin-labelled peptide substrate, (7-methoxycoumarin-4-yl)acetyl-Pro-Leu-Gly-Leu-(3-[2,4-dinitrophenyl]-L-2,3diaminopropionyl)-Ala-Arg-NH2 (Mca PLGLDpaAR) (Knight et al, 1992, above). The protocol for this assay was as described for the MMP-9 assay above.

Sequence of human ADAM17 (TACE) (P78536 215-824): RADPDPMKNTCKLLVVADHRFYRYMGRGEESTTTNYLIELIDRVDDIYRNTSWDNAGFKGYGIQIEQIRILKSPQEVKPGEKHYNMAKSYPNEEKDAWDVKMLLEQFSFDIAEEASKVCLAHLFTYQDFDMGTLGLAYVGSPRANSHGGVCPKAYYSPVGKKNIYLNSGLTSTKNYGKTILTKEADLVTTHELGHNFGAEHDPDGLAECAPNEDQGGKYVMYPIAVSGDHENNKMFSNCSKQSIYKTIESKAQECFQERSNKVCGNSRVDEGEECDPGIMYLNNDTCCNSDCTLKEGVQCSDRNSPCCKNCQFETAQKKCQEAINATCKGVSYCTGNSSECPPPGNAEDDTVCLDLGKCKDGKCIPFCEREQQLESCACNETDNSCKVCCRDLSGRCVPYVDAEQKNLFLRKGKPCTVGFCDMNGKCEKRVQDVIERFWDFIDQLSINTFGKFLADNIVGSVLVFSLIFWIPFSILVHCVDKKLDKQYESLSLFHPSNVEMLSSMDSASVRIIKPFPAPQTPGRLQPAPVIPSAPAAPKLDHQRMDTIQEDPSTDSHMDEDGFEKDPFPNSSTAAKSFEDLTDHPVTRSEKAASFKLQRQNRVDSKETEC

Turning to `CC(C)(C)OC(=O)N1CCC[C@@H]1[C@@H](CS(=O)(=O)N1CCc2cc(Cl)c(Cl)cc2C1)N(O)C=O` (racemic) [Example 44, tert-butyl (2RS)-2-{(1SR)-2-[(6,7-dichloro-3,4-dihydro-isoquinolin-2(1H)-yl)sulfonyl]-1-[formyl(hydroxy)amino]ethyl}pyrrolidine-1-carboxylate], the IC50 in experiment [1] worked out at 371 nM; in experiment [2], 91 nM.

As for `O=CN(O)C(CCc1ccccc1)CS(=O)(=O)N1CCc2ccccc2C1` (stereo not drawn) [Example 1, N-{1-[(3,4-dihydroisoquinolin-2(1H)-ylsulfonyl)methyl]-3-phenylpropyl}-N-hydroxyformamide], the IC50 in experiment [1] is 67 nM; in experiment [2] it was 95 nM.

Turning to `CC1(C)OC[C@H](C(CS(=O)(=O)N2CCc3ccccc3C2)N(O)C=O)O1` (stereo partly drawn) [Example 2, N-{2-(3,4-dihydroisoquinolin-2(1H)-ylsulfonyl)-1-[(4S)-2,2-dimethyl-1,3-dioxolan-4-yl]ethyl}-N-hydroxyformamide], the IC50 was determined as 33 nM in experiment [1] and 530 nM in experiment [2].

Take `CCCCCC(CS(=O)(=O)N1CCc2ccccc2C1)N(O)C=O` (stereo not drawn) [Example 3, N-{1-[(3,4-dihydroisoquinolin-2(1H)-ylsulfonyl)methyl]hexyl}-N-hydroxyformamide]: the 50% inhibitory concentration (IC50) turned out to be 28 nM in experiment [1] and 676 nM in experiment [2].

Take `O=CN(O)C(CS(=O)(=O)N1CCc2ccccc2C1)C1CC1` (stereo not drawn) [Example 4, N-[1-cyclopropyl-2-(3,4-dihydroisoquinolin-2(1H)-ylsulfonyl)ethyl]-N-hydroxyformamide]: the concentration for half-maximal inhibition (IC50) in experiment [1] was found to be 114 nM; in experiment [2], 653 nM.

Take `O=CN(O)C(CCc1ccccc1)CS(=O)(=O)N1Cc2ccccc2C1` (stereo not drawn) [Example 6, N-{1-[(1,3-dihydro-2H-isoindol-2-ylsulfonyl)methyl]-3-phenylpropyl}-N-hydroxyformamide]: the IC50 in experiment [1] is 280 nM; in experiment [2], 323 nM.

For `O=CN(O)C(CS(=O)(=O)N1CCc2ccccc2C1)c1cncnc1` (stereo not drawn) [Example 9, N-[2-(3,4-dihydroisoquinolin-2(1H)-ylsulfonyl)-1-pyrimidin-5-ylethyl]-N-hydroxyformamide], the concentration for half-maximal inhibition (IC50) in experiment [1] was 128 nM; in experiment [2], more than 5000 nM.

`O=CN(O)C(CS(=O)(=O)N1CCc2ccccc2C1)c1cccnc1` (stereo not drawn) [Example 10, N-[2-(3,4-dihydroisoquinolin-2(1H)-ylsulfonyl)-1-pyridin-3-ylethyl]-N-hydroxyformamide]: the concentration for half-maximal inhibition (IC50) was 67 nM in experiment [1] and more than 5000 nM in experiment [2].

For the compound `COc1cc2c(cc1OC)CN(S(=O)(=O)CC(CCc1ccccc1)N(O)C=O)CC2` (stereo not drawn) [Example 12, N-(1-{[(6,7-dimethoxy-3,4-dihydroisoquinolin-2(1H)-yl)sulfonyl]methyl}-3-phenylpropyl)-N-hydroxyformamide], the half-inhibitory concentration (IC50) in experiment [1] is 1220 nM; in experiment [2], more than 5000 nM.

Turning to `COc1ccc(C(CS(=O)(=O)N2CCc3ccccc3C2)N(O)C=O)cn1` (stereo not drawn) [Example 13, N-[2-(3,4-dihydroisoquinolin-2(1H)-ylsulfonyl)-1-(6-methoxypyridin-3-yl)ethyl]-N-hydroxyformamide], the IC50 in experiment [1] is 40 nM; in experiment [2], more than 5000 nM.

Regarding `COc1cc2c(cc1OC)CN(S(=O)(=O)CC([C@H]1COC(C)(C)O1)N(O)C=O)CC2` (stereo partly drawn) [Example 14, N-{2-[(6,7-dimethoxy-3,4-dihydroisoquinolin-2(1H)-yl)sulfonyl]-1-[(4S)-2,2-dimethyl-1,3-dioxolan-4-yl]ethyl}-N-hydroxyformamide], the IC50 in experiment [1] was 620 nM; in experiment [2], more than 5000 nM.

As to `CC1(C)OC[C@H](C(CS(=O)(=O)N2Cc3ccccc3C2)N(O)C=O)O1` (stereo partly drawn) [Example 16, N-{2-(1,3-dihydro-2H-isoindol-2-ylsulfonyl)-1-[(4S)-2,2-dimethyl-1,3-dioxolan-4-yl]ethyl}-N-hydroxyformamide], the values for the IC50 in experiment [1] and in experiment [2] were 311 nM and 78 nM, respectively.

Take `CC(C)c1ccc2c(c1)CCN(S(=O)(=O)CC([C@H]1COC(C)(C)O1)N(O)C=O)C2` (stereo partly drawn) [Example 18, N-{1-[(4S)-2,2-dimethyl-1,3-dioxolan-4-yl]-2-[(6-isopropyl-3,4-dihydroisoquinolin-2(1H)-yl)sulfonyl]ethyl}-N-hydroxyformamide]: the IC50 in experiment [1] is 640 nM; in experiment [2], 5 nM.

Regarding `CC1(C)OC[C@H](C(CS(=O)(=O)N2CCc3ccc(Cl)cc3C2)N(O)C=O)O1` (stereo partly drawn) [Example 19, N-{2-[(7-chloro-3,4-dihydroisoquinolin-2(1H)-yl)sulfonyl]-1-[(4S)-2,2-dimethyl-1,3-dioxolan-4-yl]ethyl}-N-hydroxyformamide], the half-inhibitory concentration (IC50) in experiment [1] was 23 nM; in experiment [2], 10 nM.

With `O=CN(O)C(CS(=O)(=O)N1CCc2ccc(Cl)cc2C1)C1CCCC1` (stereo not drawn) [Example 21, N-{2-[(7-chloro-3,4-dihydroisoquinolin-2(1H)-yl)sulfonyl]-1-cyclopentylethyl}-N-hydroxyformamide], the results for the IC50 in experiment [1] and in experiment [2] were 56 nM and 103 nM, respectively.

Consider `O=CN(O)[C@@H](CS(=O)(=O)N1CCc2ccc(Cl)cc2C1)[C@H]1CCCO1` [Example 22, N-{(1R)-2-[(7-chloro-3,4-dihydroisoquinolin-2(1H)-yl)sulfonyl]-1-[(2R)-tetrahydrofuran-2-yl]ethyl}-N-hydroxyformamide], for which the IC50 was 389 nM in experiment [1] and 470 nM in experiment [2].

With `O=CN(O)[C@H](CS(=O)(=O)N1CCc2ccc(Cl)cc2C1)[C@H]1CCCO1` [Example 23, N-{(1S)-2-[(7-chloro-3,4-dihydroisoquinolin-2(1H)-yl)sulfonyl]-1-[(2R)-tetrahydrofuran-2-yl]ethyl}-N-hydroxyformamide], the figures for the IC50 in experiment [1] and in experiment [2] were 13 nM and 27 nM, respectively.

As to `COc1cc2c(cc1OC)CN(S(=O)(=O)CC([C@H](O)CO)N(O)C=O)CC2` (stereo partly drawn) [Example 24, N-((2S)-1-{[(6,7-dimethoxy-3,4-dihydroisoquinolin-2(1H)-yl)sulfonyl]methyl}-2,3-dihydroxypropyl)-N-hydroxyformamide], the IC50 in experiment [1] and in experiment [2] was more than 5000 nM throughout.

(Values after patent US7879876B2, “Sulfonamide derivatives and use thereof for the modulation of metalloproteinases” (Merck Serono SA, priority 2005, dated 2011).)
